Test results as given in ChEMBL document CHEMBL6096719, “Kidney Targeting Smart Antibiotic Discovery: Multimechanism Pleuromutilins for Pyelonephritis Therapy” (J Med Chem, 2025).
Converted amounts (≈) assume the structure as drawn.

System: not listed separately
Assay: Cytotoxicity against human HepG2 cells assessed as reduction in cell viability incubated for 24 hrs by CCK8 assay
Format: toxicity, cell-based
Conditions: not given

Row | SMILES | CC50 at 24 h
1 | C=C[C@]1(C)C[C@@H](OC(=O)CSc2nc3cc[n+](Cc4ccc(C)cc4)cc3s2)[C@]2(C)[C@H](C)CC[C@]3(CCC(=O)[C@H]32)[C@@H](C)[C@@H]1O.[Br-] | 46.4 µM
2 | C=C[C@]1(C)C[C@@H](OC(=O)CS[C@@H]2C[C@H]3CC[C@@H](C2)N3C)[C@]2(C)[C@H](C)CC[C@]3(CCC(=O)[C@H]32)[C@@H](C)[C@@H]1O [RETAPAMULIN] | 61.1 µM

System: Staphylococcus aureus
Assay: Antibacterial activity against methicillin-resistant Staphylococcus aureus 575 assessed as inhibition of bacterial growth incubated for 24 hrs by broth microdilution method
Format: functional
Conditions: not given

Row | SMILES | MIC
3 | C=C[C@]1(C)C[C@@H](OC(=O)CSc2nc3cc[n+](Cc4ccc(C)cc4)cc3s2)[C@]2(C)[C@H](C)CC[C@]3(CCC(=O)[C@H]32)[C@@H](C)[C@@H]1O.[Br-] | 4 µg/mL
4 | C=C[C@]1(C)C[C@@H](OC(=O)CS[C@@H]2C[C@H]3CC[C@@H](C2)N3C)[C@]2(C)[C@H](C)CC[C@]3(CCC(=O)[C@H]32)[C@@H](C)[C@@H]1O [RETAPAMULIN] | 32 µg/mL (≈ 61.8 µM)

System: Staphylococcus aureus
Assay: Antibacterial activity against methicillin-resistant Staphylococcus aureus 171 assessed as inhibition of bacterial growth incubated for 24 hrs by broth microdilution method
Format: functional
Conditions: not given

Row | SMILES | MIC
5 | C=C[C@]1(C)C[C@@H](OC(=O)CSc2nc3cc[n+](Cc4ccc(C)cc4)cc3s2)[C@]2(C)[C@H](C)CC[C@]3(CCC(=O)[C@H]32)[C@@H](C)[C@@H]1O.[Br-] | 8 µg/mL
6 | C=C[C@]1(C)C[C@@H](OC(=O)CS[C@@H]2C[C@H]3CC[C@@H](C2)N3C)[C@]2(C)[C@H](C)CC[C@]3(CCC(=O)[C@H]32)[C@@H](C)[C@@H]1O [RETAPAMULIN] | 128 µg/mL (≈ 247 µM)

System: Pseudomonas aeruginosa
Assay: Antibacterial activity against multidrug-resistant Pseudomonas aeruginosa 126 assessed as inhibition of bacterial growth incubated for 24 hrs by broth microdilution method
Format: functional
Conditions: not given

Row | SMILES | MIC
7 | C=C[C@]1(C)C[C@@H](OC(=O)CSc2nc3cc[n+](Cc4ccc(C)cc4)cc3s2)[C@]2(C)[C@H](C)CC[C@]3(CCC(=O)[C@H]32)[C@@H](C)[C@@H]1O.[Br-] | 8 µg/mL
8 | C=C[C@]1(C)C[C@@H](OC(=O)CS[C@@H]2C[C@H]3CC[C@@H](C2)N3C)[C@]2(C)[C@H](C)CC[C@]3(CCC(=O)[C@H]32)[C@@H](C)[C@@H]1O [RETAPAMULIN] | 64 µg/mL (≈ 124 µM)

System: Staphylococcus aureus
Assay: Antibacterial activity against methicillin-resistant Staphylococcus aureus 596 assessed as inhibition of bacterial growth incubated for 24 hrs by broth microdilution method
Format: functional
Conditions: not given

Row | SMILES | MIC
9 | C=C[C@]1(C)C[C@@H](OC(=O)CSc2nc3cc[n+](Cc4ccc(C)cc4)cc3s2)[C@]2(C)[C@H](C)CC[C@]3(CCC(=O)[C@H]32)[C@@H](C)[C@@H]1O.[Br-] | 8 µg/mL
10 | C=C[C@]1(C)C[C@@H](OC(=O)CS[C@@H]2C[C@H]3CC[C@@H](C2)N3C)[C@]2(C)[C@H](C)CC[C@]3(CCC(=O)[C@H]32)[C@@H](C)[C@@H]1O [RETAPAMULIN] | 32 µg/mL (≈ 61.8 µM)

System: Staphylococcus aureus
Assay: Antibacterial activity against methicillin-resistant Staphylococcus aureus 222 assessed as inhibition of bacterial growth incubated for 24 hrs by broth microdilution method
Format: functional
Conditions: not given

Row | SMILES | MIC
11 | C=C[C@]1(C)C[C@@H](OC(=O)CSc2nc3cc[n+](Cc4ccc(C)cc4)cc3s2)[C@]2(C)[C@H](C)CC[C@]3(CCC(=O)[C@H]32)[C@@H](C)[C@@H]1O.[Br-] | 4 µg/mL
12 | C=C[C@]1(C)C[C@@H](OC(=O)CS[C@@H]2C[C@H]3CC[C@@H](C2)N3C)[C@]2(C)[C@H](C)CC[C@]3(CCC(=O)[C@H]32)[C@@H](C)[C@@H]1O [RETAPAMULIN] | 128 µg/mL (≈ 247 µM)

System: Enterococcus
Assay: Antibacterial activity against vancomycin-resistant Enterococcus 80 assessed as inhibition of bacterial growth incubated for 24 hrs by broth microdilution method
Format: functional
Conditions: not given

Row | SMILES | MIC
13 | C=C[C@]1(C)C[C@@H](OC(=O)CSc2nc3cc[n+](Cc4ccc(C)cc4)cc3s2)[C@]2(C)[C@H](C)CC[C@]3(CCC(=O)[C@H]32)[C@@H](C)[C@@H]1O.[Br-] | 8 µg/mL
14 | C=C[C@]1(C)C[C@@H](OC(=O)CS[C@@H]2C[C@H]3CC[C@@H](C2)N3C)[C@]2(C)[C@H](C)CC[C@]3(CCC(=O)[C@H]32)[C@@H](C)[C@@H]1O [RETAPAMULIN] | > 128 µg/mL

System: not listed separately
Assay: Aqueous solubility of the compound incubated for 12 hrs by UV-Vis spectrophotometry
Format: physicochemical
Conditions: buffer

Row | SMILES | solubility at 12 h
15 | C=C[C@]1(C)C[C@@H](OC(=O)CSc2nc3cc[n+](Cc4ccc(F)cc4)cc3[nH]2)[C@]2(C)[C@H](C)CC[C@]3(CCC(=O)[C@H]32)[C@@H](C)[C@@H]1O.[Br-] | 159 µg/mL
16 | C=C[C@]1(C)C[C@@H](OC(=O)CSc2nc3cc[n+](Cc4cc(F)c(F)cc4F)cc3s2)[C@]2(C)[C@H](C)CC[C@]3(CCC(=O)[C@H]32)[C@@H](C)[C@@H]1O.[Br-] | 485 µg/mL
17 | C=C[C@]1(C)C[C@@H](OC(=O)CSc2nc3cc[n+](Cc4cc(OC)cc(OC)c4)cc3s2)[C@]2(C)[C@H](C)CC[C@]3(CCC(=O)[C@H]32)[C@@H](C)[C@@H]1O.[Br-] | 94 µg/mL
18 | C=C[C@]1(C)C[C@@H](OC(=O)CSc2nc3cc[n+](Cc4ccc(C)cc4)cc3s2)[C@]2(C)[C@H](C)CC[C@]3(CCC(=O)[C@H]32)[C@@H](C)[C@@H]1O.[Br-] | 568 µg/mL

Now from value to compound:

Row | solubility at 12 h | SMILES
19 | 539 µg/mL | C=C[C@]1(C)C[C@@H](OC(=O)CSc2nc3cc[n+](Cc4cc(F)c(F)cc4F)cc3[nH]2)[C@]2(C)[C@H](C)CC[C@]3(CCC(=O)[C@H]32)[C@@H](C)[C@@H]1O.[Br-]
20 | 344 µg/mL | C=C[C@]1(C)C[C@@H](OC(=O)CSc2nc3cc[n+](Cc4ccc(Br)cc4)cc3s2)[C@]2(C)[C@H](C)CC[C@]3(CCC(=O)[C@H]32)[C@@H](C)[C@@H]1O.[Br-]
21 | 419 µg/mL | C=C[C@]1(C)C[C@@H](OC(=O)CSc2nc3cc[n+](Cc4ccc(Cl)cc4)cc3[nH]2)[C@]2(C)[C@H](C)CC[C@]3(CCC(=O)[C@H]32)[C@@H](C)[C@@H]1O.[Br-]
22 | 246 µg/mL | C=C[C@]1(C)C[C@@H](OC(=O)CSc2nc3cc[n+](Cc4ccc(C(F)(F)F)cc4)cc3s2)[C@]2(C)[C@H](C)CC[C@]3(CCC(=O)[C@H]32)[C@@H](C)[C@@H]1O.[Br-]
23 | 391 µg/mL | C=C[C@]1(C)C[C@@H](OC(=O)CSc2nc3cc[n+](Cc4ccc(-c5ccccc5)cc4)cc3s2)[C@]2(C)[C@H](C)CC[C@]3(CCC(=O)[C@H]32)[C@@H](C)[C@@H]1O.[Br-]
24 | 486 µg/mL | C=C[C@]1(C)C[C@@H](OC(=O)CSc2nc3cc[n+](Cc4ccc(C(C)(C)C)cc4)cc3[nH]2)[C@]2(C)[C@H](C)CC[C@]3(CCC(=O)[C@H]32)[C@@H](C)[C@@H]1O.[Br-]
25 | 392 µg/mL | C=C[C@]1(C)C[C@@H](OC(=O)CSc2nc3cc[n+](Cc4cc(C)cc(C)c4)cc3s2)[C@]2(C)[C@H](C)CC[C@]3(CCC(=O)[C@H]32)[C@@H](C)[C@@H]1O.[Br-]
26 | 91.8 µg/mL | C=C[C@]1(C)C[C@@H](OC(=O)CSc2nc3cc[n+](Cc4cc(F)ccc4C#N)cc3[nH]2)[C@]2(C)[C@H](C)CC[C@]3(CCC(=O)[C@H]32)[C@@H](C)[C@@H]1O.[Br-]

System: Klebsiella pneumoniae
Assay: Antibacterial activity against multidrug-resistant Klebsiella pneumoniae 893 assessed as inhibition of bacterial growth incubated for 24 hrs by broth microdilution method
Format: functional
Conditions: not given

Row | SMILES | MIC
27 | C=C[C@]1(C)C[C@@H](OC(=O)CSc2nc3cc[n+](Cc4ccc(C)cc4)cc3s2)[C@]2(C)[C@H](C)CC[C@]3(CCC(=O)[C@H]32)[C@@H](C)[C@@H]1O.[Br-] | 2 µg/mL
28 | C=C[C@]1(C)C[C@@H](OC(=O)CS[C@@H]2C[C@H]3CC[C@@H](C2)N3C)[C@]2(C)[C@H](C)CC[C@]3(CCC(=O)[C@H]32)[C@@H](C)[C@@H]1O [RETAPAMULIN] | 128 µg/mL (≈ 247 µM)

System: not listed separately
Assay: Cytotoxicity against human A549 cells assessed as reduction in cell viability incubated for 24 hrs by CCK8 assay
Format: toxicity, cell-based
Conditions: not given

Row | SMILES | CC50 at 24 h
29 | C=C[C@]1(C)C[C@@H](OC(=O)CSc2nc3cc[n+](Cc4ccc(C)cc4)cc3s2)[C@]2(C)[C@H](C)CC[C@]3(CCC(=O)[C@H]32)[C@@H](C)[C@@H]1O.[Br-] | > 100 µM
30 | C=C[C@]1(C)C[C@@H](OC(=O)CS[C@@H]2C[C@H]3CC[C@@H](C2)N3C)[C@]2(C)[C@H](C)CC[C@]3(CCC(=O)[C@H]32)[C@@H](C)[C@@H]1O [RETAPAMULIN] | 71.5 µM

System: not listed separately
Assay: Cytotoxicity against human HEK293 cells assessed as reduction in cell viability incubated for 24 hrs by CCK8 assay
Format: toxicity, cell-based
Conditions: not given

Row | SMILES | CC50 at 24 h
31 | C=C[C@]1(C)C[C@@H](OC(=O)CSc2nc3cc[n+](Cc4ccc(C)cc4)cc3s2)[C@]2(C)[C@H](C)CC[C@]3(CCC(=O)[C@H]32)[C@@H](C)[C@@H]1O.[Br-] | 82.1 µM
32 | C=C[C@]1(C)C[C@@H](OC(=O)CS[C@@H]2C[C@H]3CC[C@@H](C2)N3C)[C@]2(C)[C@H](C)CC[C@]3(CCC(=O)[C@H]32)[C@@H](C)[C@@H]1O [RETAPAMULIN] | 57.5 µM

System: Acinetobacter baumannii
Assay: Antibacterial activity against carbapenem-resistant Acinetobacter baumannii 882 assessed as inhibition of bacterial growth incubated for 24 hrs by broth microdilution method
Format: functional
Conditions: not given

Row | SMILES | MIC
33 | C=C[C@]1(C)C[C@@H](OC(=O)CSc2nc3cc[n+](Cc4ccc(C)cc4)cc3s2)[C@]2(C)[C@H](C)CC[C@]3(CCC(=O)[C@H]32)[C@@H](C)[C@@H]1O.[Br-] | 4 µg/mL
34 | C=C[C@]1(C)C[C@@H](OC(=O)CS[C@@H]2C[C@H]3CC[C@@H](C2)N3C)[C@]2(C)[C@H](C)CC[C@]3(CCC(=O)[C@H]32)[C@@H](C)[C@@H]1O [RETAPAMULIN] | 64 µg/mL (≈ 124 µM)

System: Staphylococcus aureus
Assay: Antibacterial activity against methicillin-resistant Staphylococcus aureus 206 assessed as inhibition of bacterial growth incubated for 24 hrs by broth microdilution method
Format: functional
Conditions: not given

Row | SMILES | MIC
35 | C=C[C@]1(C)C[C@@H](OC(=O)CSc2nc3cc[n+](Cc4ccc(C)cc4)cc3s2)[C@]2(C)[C@H](C)CC[C@]3(CCC(=O)[C@H]32)[C@@H](C)[C@@H]1O.[Br-] | 2 µg/mL
36 | C=C[C@]1(C)C[C@@H](OC(=O)CS[C@@H]2C[C@H]3CC[C@@H](C2)N3C)[C@]2(C)[C@H](C)CC[C@]3(CCC(=O)[C@H]32)[C@@H](C)[C@@H]1O [RETAPAMULIN] | 64 µg/mL (≈ 124 µM)
